Patent US20230030607A1, “Novel oxygen pulse therapy method for treating COVID19 and viral, bacterial, fungal or parasitic respiratory and other diseases” (priority 2021, published 2023)
Where “and” joins values, the source holds several entries; their conditions need not be identical. Equal values may be shown once.

Assays:
[1] = system: COVID-19; conditions: hospitalized patients; cited from earlier work
[2] = system: SARS-CoV-2
[3] = system: SARS-CoV-2; conditions: human, in vivo
[4] = system: COVID-19; conditions: in vivo; cited from earlier work

lopinavir/ritonavir
effect on 28-day mortality or the in-hospital course of COVID-19 [1]: little or no effect

O=O [oxygen]
use of the therapy in respiratory diseases including SARS-COVID19 infections ([2]; elders, adults and children, most of them immune depressed patients): satisfactory used
new infection for COVID 19 at follow-up ([2]; human, in vivo): no new infection for COVID 19 has developed
time to recovery ([2]; human, in vivo): 5 days and 3 days
infection for COVID 19 at follow-up [3]: no infection for COVID 19 has been developed

CCN(CCO)CCCC(C)Nc1ccnc2cc(Cl)ccc12 (stereo not shown) [hydroxychloroquine]
effect on 28-day mortality or the in-hospital course of COVID-19 [1]: little or no effect
benefit for treatment of COVID-19 [4]: not been shown to offer any benefit
